# Measured values from patent US6737383B1, “Herbicidal oxadiazolidines” (priority 1999, dated 2004).
# Experiments:
# [1] = test system: bedstraw; experiment: Test B pre/postemergence bedstraw; type: in vivo, Galium aparine; details: Preemergence; for Bedstraw plant response rating: scale 0 to 10, 0 is no effect, 10 is complete control
# Text: (§1) Seeds of bedstraw (Galium aparine), blackgrass (Alopecurus myosuroides), surinam grass (Brachiaria decumbens), cocklebur (Xanthium strumarium), corn (Zea mays), crabgrass (Digitaria sanguinalis), giant foxtail (Setaria faberii), morningglory (Ipomoea hederacea), pigweed (Amaranthus retroflexus), rape (Brassica napus), soybean (Glycine max), sugar beet (Beta vulgaris), velvetleaf (Abutilon theophrasti), wheat (Triticum aestivum), wild oat (Avena fatua) and purple nutsedge (Cyperus rotundus) tubers were planted and treated preemnergence with test chemicals formulated in a non-phytotoxic solvent mixture which included a surfactant.
# (§2) At the same time, these crop and weed species were also treated with postemergence applications of test chemicals formulated in the same manner. Plants ranged in height from 2 to 18 cm (1- to 4-leaf stage) for postemergence treatments. Plant species in the flood test consisted of rice (Oryza sativa), smallflower flatsedge (Cyperus difformis), duck salad (Heteranthera limosa) and bamyardgrass (Echinochloa crus-galli) grown to the 2-leaf stage for testing. Treated plants and controls were maintained in a greenhouse for twelve to sixteen days, after which all species were compared to controls and visually evaluated. Plant response ratings, summarized in Table B, are based on a scale of 0 to 10 where 0 is no effect and 10 is complete control. A dash (−) response means no test result.
# [2] = test system: blackgrass; experiment: Test B pre/postemergence blackgrass; type: in vivo, Alopecurus myosuroides
# Text: as §1, §2
# [3] = test system: surinam grass; experiment: Test B pre/postemergence surinam grass; type: in vivo, Brachiaria decumbens
# Text: as §1, §2
# [4] = test system: cocklebur; experiment: Test B pre/postemergence cocklebur; type: in vivo, Xanthium strumarium
# Text: as §1, §2
# [5] = test system: corn; experiment: Test B pre/postemergence corn; type: in vivo, Zea mays
# Text: as §1, §2
# [6] = test system: crabgrass; experiment: Test B pre/postemergence crabgrass; type: in vivo, Digitaria sanguinalis
# Text: as §1, §2
# [7] = test system: giant foxtail; experiment: Test B pre/postemergence giant foxtail; type: in vivo, Setaria faberii
# Text: as §1, §2
# [8] = test system: morningglory; experiment: Test B pre/postemergence morningglory; type: in vivo, Ipomoea hederacea
# Text: as §1, §2
# [9] = test system: pigweed; experiment: Test B pre/postemergence pigweed; type: in vivo, Amaranthus retroflexus
# Text: as §1, §2
# [10] = test system: rape; experiment: Test B pre/postemergence rape; type: in vivo, Brassica napus
# Text: as §1, §2
# [11] = test system: soybean; experiment: Test B pre/postemergence soybean; type: in vivo, Glycine max
# Text: as §1, §2
# [12] = test system: sugar beet; experiment: Test B pre/postemergence sugar beet; type: in vivo, Beta vulgaris
# Text: as §1, §2
# [13] = test system: velvetleaf; experiment: Test B pre/postemergence velvetleaf; type: in vivo, Abutilon theophrasti
# Text: as §1, §2
# [14] = test system: wheat; experiment: Test B pre/postemergence wheat; type: in vivo, Triticum aestivum
# Text: as §1, §2
# [15] = test system: wild oat; experiment: Test B pre/postemergence wild oat; type: in vivo, Avena fatua
# Text: as §1, §2
# [16] = test system: purple nutsedge; experiment: Test B pre/postemergence purple nutsedge; type: in vivo, Cyperus rotundus; details: Postemergence, Rate 500 g/ha; scale 0 to 10, 0 is no effect, 10 is complete control
# Text: as §1, §2
# [17] = Postemergence, Rate 62 g/ha, scale of 0 to 10, 0 is no effect, 10 is complete control
# [18] = Postemergence, Rate 125 g/ha, scale 0 to 10, 0 is no effect, 10 is complete control
# [19] = Postemergence, Rate 250 g/ha, scale 0 to 10
# [20] = Postemergence, Rate 500 g/ha, scale 0 to 10, 0 is no effect, 10 is complete control
# [21] = Preemergence, Rate 62 g/ha, scale of 0 to 10 where 0 is no effect and 10 is complete control
# [22] = Preemergence, Rate 125 g/ha, scale 0 to 10, 0 is no effect, 10 is complete control
# [23] = Preemergence, Rate 250 g/ha, scale 0 to 10, 0 is no effect, 10 is complete control
# [24] = Preemergence, Rate 500 g/ha, scale of 0 to 10 where 0 is no effect and 10 is complete control
structure (smiles),measurement,setting,value
CC(C)N(C(=O)n1oc(=O)n(CCc2ccccc2)c1=O)c1ccc(F)cc1F [Compound 508],"Plant response rating, Bedstraw","[1]; Rate 62 g/ha, scale of 0 to 10 where 0 is no effect and 10 is complete control",0
same,Bedstraw plant response rating,[1]; Rate 125 g/ha,0
same,Bedstraw plant response rating,[1]; Rate 250 g/ha,0
same,Bedstraw plant response rating,[1]; Rate 500 g/ha,0
same,Blackgrass plant response rating,[2]; [17],0
same,Blackgrass plant response rating,[2]; [18],3
same,Blackgrass plant response rating,[2]; [19],6
same,"Plant response rating, Blackgrass",[2]; [20],6
same,"Plant response rating, Blackgrass",[2]; [21],1
same,Blackgrass plant response rating,[2]; [22],3
same,Blackgrass plant response rating,[2]; [23],5
same,Blackgrass plant response rating,[2]; [24],8
same,B. signalgrass plant response rating,[3]; [17],0
same,B. signalgrass plant response rating,[3]; [18],0
same,B. signalgrass plant response rating,"[3]; Postemergence, Rate 250 g/ha, scale 0 to 10, 0 no effect, 10 complete control",3
same,"Plant response rating, B. signalgrass",[3]; [20],3
same,"Plant response rating, B. signalgrass",[3]; [21],4
same,B. signalgrass plant response rating,[3]; [22],7
same,B. signalgrass plant response rating,[3]; [23],8
same,B. signalgrass plant response rating,"[3]; Preemergence, Rate 500 g/ha, scale 0 to 10, 0 is no effect, 10 is complete control",8
same,Cocklebur plant response rating,[4]; [17],0
same,Cocklebur plant response rating,[4]; [18],1
same,Cocklebur plant response rating,[4]; [19],4
same,"Plant response rating, Cocklebur",[4]; [20],4
same,"Plant response rating, Cocklebur",[4]; [21],0
same,Cocklebur plant response rating,[4]; [22],0
same,Cocklebur plant response rating,[4]; [23],0
same,Cocklebur plant response rating,[4]; [24],0
same,Corn plant response rating,[5]; [17],0
same,Corn plant response rating,[5]; [18],0
same,Corn plant response rating,[5]; [19],0
same,"Plant response rating, Corn",[5]; [20],3
same,"Plant response rating, Corn",[5]; [21],0
same,Corn plant response rating,[5]; [22],0
same,Corn plant response rating,[5]; [24],4
same,Crabgrass plant response rating,[6]; [17],9
same,Crabgrass plant response rating,[6]; [18],9
same,Crabgrass plant response rating,[6]; [19],9
same,"Plant response rating, Crabgrass",[6]; [20],9
same,"Plant response rating, Crabgrass",[6]; [21],6
same,Crabgrass plant response rating,[6]; [22],9
same,Crabgrass plant response rating,[6]; [24],10
same,Giant foxtail plant response rating,[7]; [17],8
same,Giant foxtail plant response rating,[7]; [18],8
same,"Plant response rating, Giant foxtail",[7]; [20],8
same,"Plant response rating, Giant foxtail",[7]; [21],10
same,Giant foxtail plant response rating,[7]; [22],10
same,Giant foxtail plant response rating,[7]; [24],10
same,Morningglory plant response rating,[8]; [17],3
same,Morningglory plant response rating,[8]; [18],3
same,"Plant response rating, Morningglory",[8]; [20],7
same,"Plant response rating, Morningglory",[8]; [21],0
same,Morningglory plant response rating,[8]; [22],0
same,Morningglory plant response rating,[8]; [24],0
same,Redroot pigweed plant response rating,[9]; [17],3
same,Redroot pigweed plant response rating,[9]; [18],7
same,"Plant response rating, Redroot pigweed",[9]; [20],9
same,"Plant response rating, Redroot pigweed",[9]; [21],7
same,Redroot pigweed plant response rating,[9]; [22],8
same,Redroot pigweed plant response rating,[9]; [24],10
same,Rape plant response rating,[10]; [17],1
same,Rape plant response rating,[10]; [18],5
same,"Plant response rating, Rape",[10]; [20],8
same,"Plant response rating, Rape",[10]; [21],0
same,Rape plant response rating,[10]; [22],0
same,Rape plant response rating,[10]; [24],3
same,Soybean plant response rating,[11]; [17],4
same,Soybean plant response rating,[11]; [18],4
same,"Plant response rating, Soybean",[11]; [20],5
same,"Plant response rating, Soybean",[11]; [21],0
same,Soybean plant response rating,[11]; [22],0
same,Soybean plant response rating,[11]; [24],0
same,Sugarbeets plant response rating,[12]; [17],0
same,Sugarbeets plant response rating,[12]; [18],1
same,"Plant response rating, Sugarbeets",[12]; [20],9
same,"Plant response rating, Sugarbeets",[12]; [21],1
same,Sugarbeets plant response rating,[12]; [22],1
same,Sugarbeets plant response rating,[12]; [24],6
same,Velvetleaf plant response rating,[13]; [17],0
same,Velvetleaf plant response rating,[13]; [18],1
same,"Plant response rating, Velvetleaf",[13]; [20],2
same,"Plant response rating, Velvetleaf",[13]; [21],0
same,Velvetleaf plant response rating,[13]; [22],0
same,Velvetleaf plant response rating,[13]; [24],0
same,Wheat plant response rating,[14]; [17],0
same,Wheat plant response rating,[14]; [18],0
same,"Plant response rating, Wheat",[14]; [20],0
same,"Plant response rating, Wheat",[14]; [21],0
same,Wheat plant response rating,[14]; [22],0
same,Wheat plant response rating,[14]; [24],2
same,Wild oats plant response rating,[15]; [17],0
same,Wild oats plant response rating,[15]; [18],0
same,"Plant response rating, Wild oats",[15]; [20],4
same,"Plant response rating, Wild oats",[15]; [21],3
same,Wild oats plant response rating,[15]; [22],4
same,Wild oats plant response rating,[15]; [24],7
same,"Plant response rating, Nutsedge",[16],0
